Results as given in patent US20240132513A1, “BENZAZEPINE DERIVATIVES, COMPOSITIONS, AND METHODS FOR TREATING COGNITIVE IMPAIRMENT” (AGENEBIO, INC., priority 2022, published 2024).
“Also recorded” adds a separate entry of the source.

Tests used:
[1] = test system: aged-impaired (AI) rats; test: Morris water maze behavioral task; assay type: in vivo, rat; settings: 100 μg ICV
Procedure: The effects of 6,6 dimethyl-3-(3-hydroxypropyl)thio-1-(thiazol-2-yl)-6,7-dihydro-2-benzothiophen-4(5H)-one on the in vivo spatial memory retention of aged-impaired (AI) rats were assessed in a Morris water maze behavioral task. A water maze is a pool surrounded with a novel set of patterns relative to the maze.
Cognitively impaired aged rats were implanted unilaterally with a cannula into the lateral ventricle. Stereotaxic coordinates were 1.0 mm posterior to bregma, 1.5 mm lateral to midline, and 3.5 mm ventral to the skull surface. After about a week of recovery, the rats were pre-trained in a water maze for 2 days (6 trials per day) to locate a submerged escape platform hidden underneath the surface of the pool, in which the escape platform location varied from day to day. No intracerebroventricular (ICV) infusion was given during pre-training.
After pre-training, rats received ICV infusion of either 100 μg 6,6 dimethyl-3-(3-hydroxypropyl)thio-1-(thiazol-2-yl)-6,7-dihydro-2-benzothiophen-4(5H)-one (n=6) in 5 μl DMSO or vehicle DMSO (n=5) 40 min prior to water maze training and testing. Training consisted of 8 trials per day for 2 days where the hidden escape platform remained in the same location. Rats were given 60 seconds to locate the platform with a 60 seconds inter-trial interval. The rats were given a probe test (120 seconds) 24 hr. after the end of training where the escape platform was removed. During the training, there were 4 blocks, where each block had 4 training trials.
During a test trial 24 hr after training, the escape platform was removed. The search/swim pattern of the rats was used to measure whether the rats remember where the escape platform was located during pre-trial training in order to test for the long-term memory of the rats. In this trial, “target annulus” is a designated area 1.5 times the size of the escape platform around the area where the platform was located during pre-trial training. “Opposite annulus” is a control area of the same size as the size of the target annulus, which is located opposite to the target annulus in the pool. If the rats had good long-term memory, they would tend to search in the area surrounding the location where the platform was during the pre-trial training (i.e., the “target” annulus; and not the “opposite” annulus). “Time in annulus” is the amount of time in seconds that the rat spent in the target or opposite annulus area. “Number (#) of crossings” in annulus is the number of times the rat swam across the target or opposite annulus area.

[2] = test system: aged-impaired (AI) rats; test: Radial Arm Maze (RAM) behavioral task, spatial memory retention; assay type: in vivo, rat
Procedure: […] RAM behavioral tasks were performed on eight AI rats. All five treatment conditions (vehicle and four dosage levels) were tested on all eight rats.
The RAM apparatus used consisted of eight equidistantly-spaced arms. An elevated maze arm (7 cm width×75 cm length) projected from each facet of an octagonal center platform (30 cm diameter, 51.5 cm height). Clear side walls on the arms were 10 cm high and were angled at […] to form a trough. A food well (4 cm diameter, 2 cm deep) was located at the distal end of each arm. Froot Loops™ (Kellogg Company) were used as rewards. Blocks constructed of Plexiglas™ (30 cm height×12 cm width) could be positioned to prevent entry to any arm. Numerous extra maze cues surrounding the apparatus were also provided.
The AI rats were initially subjected to a pre-training test (Chappell et al. Neuropharmacology 37: 481-487, 1998). The pre-training test consisted of a habituation phase (4 days), a training phase on the standard win-shift task (18 days) and another training phase (14 days) in which a brief delay was imposed between presentation of a subset of arms designated by the experimenter (e.g., 5 arms available and 3 arms blocked) and completion of the eight-arm win-shift task (i.e., with all eight arms available).
In the habituation phase, rats were familiarized to the maze for an 8-minute session on four consecutive days. In each of these sessions, food rewards were scattered on the RAM, initially on the center platform and arms and then progressively confined to the arms. After this habituation phase, a standard training protocol was used, in which a food pellet was located at the end of each arm. Rats received one trial each day for 18 days. Each daily trial terminated when all eight food pellets had been obtained or when either 16 choices were made, or 15 minutes had elapsed. After completion of this training phase, a second training phase was carried out in which the memory demand was increased by imposing a brief delay during the trial. At the beginning of each trial, three arms of the eight-arm maze were blocked. Rats were allowed to obtain food on the five arms to which access was permitted during this initial “information phase” of the trial. Rats were then removed from the maze for 60 seconds, during which time the barriers on the maze were removed, thus allowing access to all eight arms. Rats were then placed back onto the center platform and allowed to obtain the remaining food rewards during this “retention test” phase of the trial. The identity and configuration of the blocked arms varied across trials.
The number of “errors” the AI rats made during the retention test phase was tracked. […]

[3] = target: T1, GABAA α5 receptor (Rattus norvegicus, UniProt P19969); test: GABAA α5 receptor occupancy with Ro 15-4513 tracer; assay type: in vivo, Long Evans rats; settings: for Ro 15-4513 binding in hippocampus / Ro 15-4513 levels/binding in cerebellum: 0.01-10 mg/kg; for % RO (L-655,708 Method): young Long Evans rats
T1 construct: from tissue; host or cells: rat brain in vivo; hippocampus versus cerebellum
Text: Food and water were available ad libitum.

[4] = target: α5-containing GABAA R (Homo sapiens, UniProt P18507+P31644); settings: EC20; cited from earlier work
[5] = probe test 24 hr after training

T1 sequence (P19969 32-464 limits assumed): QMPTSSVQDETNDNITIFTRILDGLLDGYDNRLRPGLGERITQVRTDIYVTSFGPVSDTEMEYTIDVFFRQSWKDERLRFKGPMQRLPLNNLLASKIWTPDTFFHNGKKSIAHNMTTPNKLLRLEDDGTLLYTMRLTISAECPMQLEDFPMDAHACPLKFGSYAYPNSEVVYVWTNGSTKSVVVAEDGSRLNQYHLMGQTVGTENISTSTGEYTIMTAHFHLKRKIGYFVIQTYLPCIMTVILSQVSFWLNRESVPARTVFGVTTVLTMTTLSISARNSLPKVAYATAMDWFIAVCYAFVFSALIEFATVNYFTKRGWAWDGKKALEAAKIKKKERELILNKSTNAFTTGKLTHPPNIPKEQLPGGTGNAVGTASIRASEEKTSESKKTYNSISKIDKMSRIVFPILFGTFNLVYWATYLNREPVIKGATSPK
α5-containing GABAA R, sequence (P31644 32-462): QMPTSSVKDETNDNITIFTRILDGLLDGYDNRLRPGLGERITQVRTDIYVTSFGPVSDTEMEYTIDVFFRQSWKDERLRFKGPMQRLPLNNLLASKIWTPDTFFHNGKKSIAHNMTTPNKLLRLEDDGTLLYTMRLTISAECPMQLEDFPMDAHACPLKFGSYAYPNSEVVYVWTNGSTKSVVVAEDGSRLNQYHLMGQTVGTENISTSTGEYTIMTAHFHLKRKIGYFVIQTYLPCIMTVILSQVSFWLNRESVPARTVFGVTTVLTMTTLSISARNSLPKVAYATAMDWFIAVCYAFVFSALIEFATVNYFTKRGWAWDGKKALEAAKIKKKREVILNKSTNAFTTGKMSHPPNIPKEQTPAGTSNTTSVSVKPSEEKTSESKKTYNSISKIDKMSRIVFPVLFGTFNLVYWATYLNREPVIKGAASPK
α5-containing GABAA R, sequence (P28472 26-473 partner): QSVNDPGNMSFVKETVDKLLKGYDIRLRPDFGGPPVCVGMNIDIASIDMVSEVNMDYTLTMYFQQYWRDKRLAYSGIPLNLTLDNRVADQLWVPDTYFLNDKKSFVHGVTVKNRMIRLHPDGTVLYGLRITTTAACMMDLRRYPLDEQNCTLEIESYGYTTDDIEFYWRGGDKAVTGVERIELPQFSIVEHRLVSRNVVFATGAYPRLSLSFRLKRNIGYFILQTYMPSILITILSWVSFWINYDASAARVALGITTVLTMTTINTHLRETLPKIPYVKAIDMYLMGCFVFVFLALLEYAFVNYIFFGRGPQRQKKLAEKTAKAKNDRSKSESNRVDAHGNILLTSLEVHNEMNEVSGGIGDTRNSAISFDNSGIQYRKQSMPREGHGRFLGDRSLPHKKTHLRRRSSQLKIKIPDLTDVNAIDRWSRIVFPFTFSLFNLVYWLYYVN
α5-containing GABAA R, sequence (P18507 40-475): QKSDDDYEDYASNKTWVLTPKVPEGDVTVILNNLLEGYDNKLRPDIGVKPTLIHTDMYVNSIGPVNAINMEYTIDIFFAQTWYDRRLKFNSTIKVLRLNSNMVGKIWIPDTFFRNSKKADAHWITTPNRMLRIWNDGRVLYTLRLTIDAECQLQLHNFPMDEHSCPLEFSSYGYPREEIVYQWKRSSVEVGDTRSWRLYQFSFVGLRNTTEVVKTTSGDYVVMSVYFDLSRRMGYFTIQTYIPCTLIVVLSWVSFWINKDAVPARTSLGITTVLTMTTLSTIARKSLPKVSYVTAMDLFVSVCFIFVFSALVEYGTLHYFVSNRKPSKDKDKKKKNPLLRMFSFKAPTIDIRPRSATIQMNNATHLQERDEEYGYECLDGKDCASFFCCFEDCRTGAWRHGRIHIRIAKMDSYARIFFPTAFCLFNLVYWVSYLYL

CC1(C)CC(=O)c2c(SCCCO)sc(-c3nccs3)c2C1 [6,6 dimethyl-3-(3-hydroxypropyl)thio-1-(thiazol-2-yl)-6,7-dihydro-2-benzothiophen-4(5H)-one]
time to find the escape platform ([1]; beginning of training (block 1)): about 24 seconds | time to find the escape platform ([1]; end of training (block 4)): about 9.6 seconds | number of crossings of target annulus compared to opposite annulus [1, 5]: crossed the “target annulus” more often | time in target annulus compared to opposite annulus [1, 5]: spent significantly more time in the target annulus

CCOC(=O)c1ncn2c1Cn1c(C)nnc1-c1cc(OC)ccc1-2 [ethyl 3-methoxy-7-methyl-9H-benzo[f]imidazo[1,5-a][1,2,4]tri]
memory performance relative to vehicle control ([2]; 3 mg/kg, four-hour delay): significantly improved memory performance | memory performance relative to vehicle control ([2]; 10 mg/kg, four-hour delay): significantly improved memory performance | Ro 15-4513 binding in hippocampus ([3]; i.v.): reduced Ro 15-4513 binding in hippocampus | Ro 15-4513 levels/binding in cerebellum ([3]; i.v.): without affecting cerebellum levels of Ro 15-4513 | GABAA α5 receptor occupancy ([3]; 10 mg/kg, i.v.): > 90%

COC(=O)c1c(-c2ccccc2)cnnc1-c1ccccc1 [methyl 3,5-diphenylpyridazine-4-carboxylate]
average no. of errors ± SEM, retention test ([2]; 3 mg/kg ip, two-hour delay): 1.31±0.40 | memory performance relative to vehicle control ([2]; 3 mg/kg ip, two-hour delay): significantly improved memory performance | % RO (L-655,708 Method) ([3]; 0.01 mg/kg, i.v.): 19.2% | % RO (L-655,708 Method) ([3]; 0.1 mg/kg, i.v.): 16.4% | % RO (L-655,708 Method) ([3]; 1 mg/kg, i.v.): 38.5% | Ro 15-4513 binding in hippocampus ([3]; i.v.): dose-dependently reduced Ro 15-4513 binding in hippocampus; also recorded: blocked the binding of Ro154513 in the hippocampus | Ro 15-4513 levels/binding in cerebellum ([3]; i.v.): without affecting cerebellum levels of Ro 15-4513; also recorded: did not affect binding of Ro15413 in the cerebellum | % RO (L-655,708 Method) ([3]; 10 mg/kg, i.v.): 110.0% | GABAA α5 receptors occupied ([3]; at exposures behaviorally active in aged-impaired rats, hippocampus): about 32% | ED50 of receptor occupancy, ratio method ([3]; i.v.): 1.8 mg/kg | receptor occupancy at 10 mg/kg ([3]; rat, iv, 10 mg/kg): > 90% | α5 in vitro efficacy [4]: +27
